Reference: patent publication US9284281B2, “Indication of naphtho[2,3-F]quinoxaline-7,12-dione compound in alleviating pain” (NATIONAL CENTRAL UNIVERSITY, priority 2014, dated 2016)

What was measured:
Format in all cases: in vivo
[1] = test system: CD-1 mice; assay: Nociceptive pain: acute pain induced by pH 5.0 acid solution, mechanical hyperalgesia by von Frey filaments; settings: for paw withdrawal threshold (PWT): control 4.0±0 g; for effective dosage: intraplantar, acute pain induced by acid solution
Protocol: Naphtho[2,3-f]quinoxaline-7,12-dione compound was intraplantarly injected into the right hind paws of 8 to 12-week-old CD-1 mice. 5 minutes after the injection, 25 μL of pH 5.0 acid solution was intraplantarly injected into each of the mice. About 60 minutes later, the mice were directly tested with the hypersensitivity to mechanical stimuli using von Frey filaments (Touch-Test North Coast Medical, Inc., Margan Hill, Calif.). The control group was conducted under the same conditions except it was treated with a compound-free saline. The results are shown in FIG. 1, where the injection of 25 μL of the pH 5.0 acid solution induced mechanical hyperalgesia in the right hind paw of the mice, and the paw withdrawal threshold (PWT) of these mice was 1.1±0.065 g. By injecting 2.2 μg/kg of the naphtho[2,3-f]quinoxaline-7,12-dione (NSC745887, D1) compound intraplantarly into the right hind paws of the mice, the paw withdrawal threshold of those mice recovered to 4.0±0 g (PWT of control group mice was 4.0±0 g).
25 μL of acid solution with a pH of 5.0 was injected into 8 to 12-week-old CD-1 mice in order to induce mechanical hyperalgesia. Mice injected with saline were the control group; the ones that were injected with compound only were compound group; the ones that were injected with only the acid solution were the acid group and those injected with both compound and the acid solution were the acid+compound group.
The above-mentioned 1 M of pH 5.0 solution was prepared by dissolving 1.952 g of 2-(N-morpholino)ethanesulfonic acid (MES) in 10 mL of sterilized secondary water. The pH of the solution was adjusted to 5.0 using 1N NaOH solution. Before injection, pH5.0 was diluted with saline into 10 mM.
(§1) 2.2 μg/kg of the compound was administered to the mice by intraplantar injection about 5 minutes prior to the injection of the acid solution. An hour after the injection of the acid, the hypersensitivity of the mice to mechanical stimuli was measured using von Frey filaments (Touch-Test North Coast Medical, Inc., Margan Hill, Calif.). The mice were placed in transparent plastic chambers (10×8×10 cm) on a metal mesh floor at least 30 minutes per day for 2 days to acclimatize them to the testing room prior to the test. 60 minutes after the mice were administered with the compound, the mechanical hyperalgesia was assessed through the measurement of paw withdrawal frequencies by a sequential series of von Frey filaments of weights 0.6, 1.0, 1.4, 2.0 and 4.0 g applied perpendicularly to the plantar surface of the paw. The paw was briefly stimulated with force sufficient to slightly bend the filaments and a single trial consisted of repeated applications of the von Frey filaments five times, each application lasting for about 5 seconds. The occurrence of paw withdrawal resulting from the stimulation or removing the stimulation for each trial was quantified as a percentage response frequency for each filament. When the frequency was more than 50%, the weight of the von Frey filaments was determined as the paw withdrawal threshold (PWT). To make sure all the mice were under normal physical conditions, all housing conditions complied with general feeding standards, and the temperature and illumination were maintained in a suitable range.

[2] = test system: CD-1 mice; assay: Neuropathic pain: chronic constriction injury (CCI) of the sciatic nerve, mechanical hyperalgesia by von Frey filaments; settings: for paw withdrawal threshold (PWT): one week after CCI
From the text: The assessment of the effectiveness of the compound for alleviating neuropathic pain used the animal model of chronic constriction injury (CCI) of the sciatic nerve, which was established by Bennett and Xie (1988). After the surgery, the mice developed long-lasting hypersensitivity to mechanical stimuli (chronic mechanical hyperalgesia), even being lightly touched. The mechanical hyperalgesia test was used to evaluate the analgesic effect of the compound.
The mice, after a week following the surgery, were intraplantarly injected with a series of different dosages of the naphtho[2,3-f]quinoxaline-7,12-dione compound, […], or the mice were injected with 2.2 μg/kg of compound intrathecally, or with 43 μg/kg of the compound intraperitoneally. The hypersensitivity to mechanical stimuli was measured using von Frey filaments at 60 minutes after the injection. The mice injected with saline following surgery were the control group and the other mice injected with gabapentin following surgery were the positive control group.
as §1
According to the method described by Bennett and Xie, Pain, 1988, 33, 87-107, 8 to 12-week-old CD-1 mice were subjected to the chronic constriction injury (CCI) of the sciatic nerve, which is an animal model inducing chronic neuropathic pain. To anesthetize the mice, each of the mice was injected with 240 mg/kg of 2,2,2-tribromoethanol (Avertin). Then three ligatures were loosely tied around the sciatic nerve of the mouse with chromic gut. The surgical procedure for the Sham (non ligation) control group was identical to that mentioned above except that the sciatic nerves were not ligated. A week after the mice in the experimental (CCI+compound) group had chronic constriction injury of sciatic nerves, the compound was intraplantarly, intrathecally, or intraperitoneally injected into the mice. 60 minutes after the injection, the mice were directly subjected to the hypersensitivity test to mechanical stimuli. The mice under the surgery treated with saline were the CCI group; the mice treated with gabapentin were the positive control (CCI+Gabapentin) group.

[3] = test system: mice; assay: Inflammatory pain: chronic inflammatory pain induced by Complete Freund's Adjuvant (CFA), mechanical hyperalgesia by von Frey filaments
Protocol: When 50% CFA was intraplantarly injected into the mouse, paw edema and chronic mechanical hyperalgesia were developed in the tested mice. Different dosages of the naphtho[2,3-f]quinoxaline-7,12-dione compound, 0.22, 2.2, 22 μg/kg were intraplantarly injected into mouse hindpaw, followed by 50% CFA injection. At 60 minutes after the CFA injection, the hypersensitivity of the mice to mechanical stimuli was measured using von Frey filaments.
as §1
To induce paw edema and chronic inflammatory pain, 25 μL of 50% Complete Freund's Adjuvant (CFA) in saline was intraplantarly injected into the right hind paw of the mouse. […] 60 minutes after the CFA injection, the hypersensitivity to mechanical stimuli was measured using von Frey filaments.

[4] = 2.2 μg/kg intraplantar once every week for three weeks, FIG. 3

With `Cc1nc2ccc3c(c2nc1C)C(=O)c1ccccc1C3=O` [C3, 2,3-dimethylnaphtho[2,3-f]quinoxaline-7,12-dione] the “paw withdrawal threshold (PWT)” value ([1]; 24 μg/kg intraplantar, then pH 5.0 acid solution, FIG. 1B) was 2.0 ± 0 g, the effective dosage [1] was 24 µg/kg and the “paw withdrawal threshold (PWT)” value ([2]; 24 μg/kg intraplantar, FIG. 2B) was 1.4 g. The “paw withdrawal threshold (PWT)” value ([3]; 24 μg/kg intraplantar before CFA, FIG. 4B) was 1.4 g.

In the case of `O=C1c2ccccc2C(=O)c2c1ccc1nccnc21` [D1, naphtho[2,3-f]quinoxaline-7,12-dione], the “paw withdrawal threshold (PWT)” value ([1]; 2.2 μg/kg intraplantar, 5 min before pH 5.0 acid solution, about 60 min later, acid only 1.1±0.065 g) is reported as 4.0 ± 0 g, the effective dosage [1] is reported as 2.2 µg/kg and the “paw withdrawal threshold (PWT), compound without acid solution” value ([1]; sole injection of the compound without the acid solution, did not induce pain) is reported as 4.0 ± 0 g. The “tolerance to the compound” value ([2]; 2.2 μg/kg intraplantar once every week for three weeks) was “no obvious indication that the mice developed tolerance”, the “paw withdrawal threshold (PWT), first week” value [2, 4] was 3.3 ± 0.67 g and the “paw withdrawal threshold (PWT), second week” value [2, 4] was 3.3 ± 0.67 g. For the same compound, the “paw withdrawal threshold (PWT), third week” value [2, 4] was 3.0 ± 0.1 g, the “paw withdrawal threshold (PWT)” value ([2]; 2.2 μg/kg intraplantar, 60 min after injection, FIG. 2A, CCI 0.9±0.23 g, control 3.6±0.29 g) was 3.3 ± 0.67 g and the “paw withdrawal threshold (PWT)” value ([2]; 2.2 μg/kg intraplantar, FIG. 2B, CCI 0.9±0.23 g) was 2.0 ± 0 g. The “paw withdrawal threshold (PWT)” value ([2]; 2.2 μg/kg intrathecal, FIG. 2A) was 2.0 g, the “paw withdrawal threshold (PWT)” value ([2]; 22 μg/kg intraplantar, FIG. 2A) was 3.3 ± 0.67 g and the “inhibition of mechanical hyperalgesia induced by CCI” value ([2]; 43 μg/kg intraperitoneal) was “completely inhibited mechanical hyperalgesia”. The “paw withdrawal threshold (PWT)” value ([3]; 2.2 μg/kg intraplantar before 50% CFA, 60 min after CFA, FIG. 4A, CFA 0.4±0.033 g, control 3.8±0.171 g) was 1.1 ± 0.15 g, the “paw withdrawal threshold (PWT)” value ([3]; 22 μg/kg intraplantar before 50% CFA, FIG. 4A) was 2.0 ± 0.411 g and the “paw withdrawal threshold (PWT)” value ([3]; 22 μg/kg intraplantar before CFA, FIG. 4B, control 3.8±0.171 g) was 2.3 g.

In the case of `O=C1c2ccccc2C(=O)c2c1ccc1[nH]c(=O)c(=O)[nH]c21` [D2, naphtho[2,3-f]quinoxaline-2,3,7,12(1H,4H)-tetraone], the “paw withdrawal threshold (PWT)” value ([1]; 24.3 μg/kg intraplantar, then pH 5.0 acid solution, FIG. 1C) is reported as 4.0 ± 0 g, the effective dosage [1] is reported as 24.3 µg/kg and the “paw withdrawal threshold (PWT)” value ([2]; 24.3 μg/kg intraplantar, FIG. 2B) is reported as 2.0 ± 0 g. The “paw withdrawal threshold (PWT)” value ([3]; 24.3 μg/kg intraplantar before CFA, FIG. 4B) was 1.0 g.

`NCC1(CC(=O)O)CCCCC1` [gabapentin, reference compound] was tested, and the “dose required to inhibit chronic mechanical hyperalgesia caused by CCI” value ([2]; intraperitoneal injection) was “at least 15,000 μg/kg”.
